Reference: patent US20040180862A1, “Compositions and methods for inhibiting bone resorption” (priority 2001, published 2004)
“Also recorded” adds a separate entry of the source. Read-outs that look alike come from different tables or passages of the source.

What was measured:
[1] = test system: Ch1.Es esophageal fibroblasts; experiment: Apoptosis in Ch1.Es cells (cell rounding and detachment from the dish); format: cell-based; conditions: for induction of apoptosis: bisphosphonate 300 μM, 24 hours; for suppression of ALN-induced apoptosis in absence of lipoprotein / suppression of RIS-induced apoptosis in absence of lipoprotein: FIG. 3: LPDS, Zara-A 10 μM; for suppression of ALN-induced apoptosis in absence of lipoprotein: ALN 300 μM 24 hours; for suppression of RIS-induced apoptosis in absence of lipoprotein: RIS 300 μM 24 hours
Protocol: Apoptosis is observed as cell rounding and detachment from the dish.
Ch1.Es cells were grown for 24 hours in either fetal bovine serum (FBS) (top panels) or lipoprotein-deficient […] (LPDS) in the absence (middle) or presence (bottom) of Zara-A (10 μM). […] (300 μM). Phenotypes were scored as in FIG. 2. The suppression of apoptosis is near complete after inclusion of Zara-A.

[2] = test system: Ch1.Es esophageal fibroblasts; experiment: Activation of pro-apoptotic kinases (in-gel kinase assay, phospho-specific immunoblotting); format: cell-based; conditions: 300 μM, 24 hours
Protocol: Cell lysates were analyzed using an in-gel kinase assay (top) or by immuno-blotting with anti-phospho-specific antibodies recognizing active MAP kinases (Erk1 and 2), p38, or Jun N-terminal kinase (Jnk).

[3] = test system: Ch1.Es esophageal fibroblasts; experiment: Protein isoprenylation in Ch1.Es fibroblasts (immunoblot with anti-hDNAJ and anti-Rap1A markers); format: cell-based
Protocol: (§1) Cells were treated for 24 hours and protein lysates were analyzed for suppression of protein isoprenylation. Markers included either anti-hDNAJ, a farnesylated protein that migrates more slowly when farnesylation is absent (two bands observed) or anti-Rap1A, which we have shown previously to bind preferentially to Rap1A if isoprenylation is blocked (presence of a band indicates absence of protein geranylgeranylation) (See Reszka, A. A., Halasy-Nagy, J. and Rodan, G. A. Molecular Pharmacology 59:193-202, 2001).
(A) Cells pretreated for 24 hours with nothing or the squalene synthase inhibitor, zaragozic Acid A (Zara-A) at 3 μM (three lanes indicated).
as §1, with “geranylgeranylation. See FIG. 1.” for “geranylgeranylation) (See Reszka, A. A., Halasy-Nagy, J. and Rodan, G. A. Molecular Pharmacology 59:193-202, 2001).”
(A) Cells pretreated for 24 hours with nothing or the squalene synthase inhibitor, Zaragozic Acid A (Zara-A) at 3 μM (three lanes indicated).

skin [4] = conditions: subcutaneous, 5 days; for effect of coadministered Zara-A on ALN-induced skin irritation / thickening: ALN 0.5 mg/kg with Zara-A 3 μg/kg; for effect of coadministered Zara-A on ALN-induced skin irritation / thickening / effect of coadministered Zara-A on RIS-induced skin irritation / thickening: P≦0.01; for effect of coadministered Zara-A on RIS-induced skin irritation / thickening: RIS 0.5 mg/kg with Zara-A 3 μg/kg
skin [5] = experiment: Skin irritation after subcutaneous injection, histology (hematoxylin and eosin, affected area); format: in vivo, Rats; conditions: 5 days
Protocol: Skin was harvested after necropsy, fixed with formalin, thin-sectioned and stained with hematoxylin and eosin. Area was determined by measuring the thickness and length of each affected area and is represented vs. the H2O control.

[6] = ALN 300 μM, 24 hours, absence of Zara-A
[7] = listed as squalene synthase inhibitor
[8] = Zara-A 0.1-10 μM pretreated 24 hours, then ALN 300 μM 24 hours

Row | Compound | induction of apoptosis [1] | activation of pro-apoptotic kinases [2] | inhibition of Rap1A geranylgeranylation [3, 6] | inhibition of hDNAJ farnesylation [3, 6] | volume of affected skin area (skin [4]; 0.5 mg/kg, vehicle control 50-100) [mm^3] | skin irritation (skin [5]; 0.5 mg/kg) | effect of coadministered Zara-A on ALN-induced skin irritation / thickening (skin [4]) | effect of coadministered Zara-A on ALN-induced skin irritation / thickening (skin [4]; [7]) | effect of coadministered Zara-A on RIS-induced skin irritation / thickening (skin [4]) | effect of coadministered Zara-A on RIS-induced skin irritation / thickening (skin [4]; [7]) | suppression of ALN-induced skin irritation (skin [5]; FIG. 6: ALN 0.5 mg/kg with Zara-A 3 μg/kg) | suppression of ALN-induced apoptosis ([1]; FIG. 2: Zara-A 24 hours, then ALN 300 μM 24 hours) | suppression of ALN-induced apoptosis in absence of lipoprotein [1] | suppression of ALN-induced apoptosis in absence of lipoprotein [1, 7] | suppression of RIS-induced apoptosis in absence of lipoprotein [1] | suppression of RIS-induced apoptosis in absence of lipoprotein [1, 7] | effect of Zara-A pretreatment on ALN inhibition of Rap1A geranylgeranylation ([3]; Zara-A 3 μM pretreated 24 hours, then ALN 300 μM 24 hours) | effect of Zara-A on capacity of ALN to inhibit Rap1A geranylgeranylation [3, 8] | effect of Zara-A on capacity of ALN to inhibit hDNAJ farnesylation [3, 8]
1 | NCCCC(O)(P(=O)(O)O)P(=O)(O)O [ALN, 4-amino-1-hydroxybutylidene-1,1-bisphosphonic acid monosodium trihydrate] | induced | activate | strongly inhibits | strongly inhibits |  |  |  |  |  |  |  |  |  |  |  |  |  |  | 
2 | O=P(O)(O)C(O)(Cc1cccnc1)P(=O)(O)O [RIS, 1-hydroxy-2-(3-pyridinyl)-ethylidene-1,1-bisphosphonic acid] | induced | activate |  |  | 240 | Skin irritation induced |  |  |  |  |  |  |  |  |  |  |  |  | 
3 | C=C(CC[C@]12O[C@H](C(=O)O)[C@@](O)(C(=O)O)[C@](C(=O)O)(O1)[C@H](OC(=O)/C=C/[C@@H](C)C[C@@H](C)CC)[C@H]2O)[C@@H](OC(C)=O)[C@H](C)Cc1ccccc1 [Zara-A, zaragozic Acid A] |  |  |  |  |  |  | significantly reduced | suppresses | significantly reduced | suppresses | suppresses | suppression | near complete | maximally suppresses | near complete | maximally suppresses | reduced; also recorded: diminished | dose-dependently reduces; also recorded: dose-dependently diminished | dose-dependently reduces; also recorded: dose-dependently diminished
